Patent EP0565593B1, “REDUCING PESTICIDAL INTERACTIONS IN CROPS” (priority 1990, dated 1992)

Assays:
Type in all cases: in vivo
cotton (COTT) = assay: Multi-crop greenhouse test, COUNTER 15G and safener PPI, herbicide POE (Examples 62-64; Tables 61-63); design: dose or concentration left out as unconfirmed; details: Gossypium hirsutum, Table 63, Biocide No. 1 8.96 Kg/Ha, antidote 4.48 Kg/Ha PPI where in label
Method: (§1) Tests according to this invention in various crops indicate widespread application of the invention. In Examples 62-66 below are described tests with a variety of herbicides contacted with COUNTER® 15G in the presence and absence of MON-7400 (Antidote No. 12); MON-13900 (No. 1); MON-4660 (No. 16) and flurazole (No. 16). Those tests were conducted according to Procedures IV or V described above and illustrated further in other foregoing examples. Plants used in all tests were, for crops (as abbreviated in parentheses); cotton (COTT); soybean (SOBE); CORN, grain sorghum (GRSO); wheat (WHEA) and RICE, and the weeds giant foxtail (GIFT) and velvetleaf (VELE). The data in the tables below represent averages of two replications.
(§2) In this test the crops and weeds were planted 1.3 cm deep in 13.7 cm X 27.7 cm pans containing Dupo silt loam soil. The test safeners were applied in acetone solution and COUNTER 15G as dry granules to soil cover layers and incorporated by shaking in a bag. Treated cover layers were placed on seeded pans which were transferred to greenhouse benches and subirrigated. Herbicide was applied POE six (6) days after PPI initiation and observations of plant injury made ten (10) days later; results are shown in Table 61. The herbicide used in this example was BEACON (No. 8).
(§3) The test procedure described in Example 62 was repeated using ACCENT® (Herbicide No. 7) as the herbicide; the biocide and safeners were the same.

Corn [1] = assay: Multi-crop greenhouse test, herbicide POE (Examples 62-64; Tables 61-63); design: inhibition: dose or concentration left out as unconfirmed; details: for inhibition: Zea mays, Table 63, Biocide No. 1 8.96 Kg/Ha, antidote 4.48 Kg/Ha PPI where in label
Method: as §1, §2, §3

Velvetleaf (VELE) = assay: as above; design: dose or concentration left out as unconfirmed; details: Abutilon theophrasti, Table 63, Biocide No. 1 8.96 Kg/Ha, antidote 4.48 Kg/Ha PPI where in label
Method: as §1, §2, §3

RICE = assay: as above; design: dose or concentration left out as unconfirmed; details: Oryza sativa, Table 63, Biocide No. 1 8.96 Kg/Ha, antidote 4.48 Kg/Ha PPI where in label
Method: as §1, §2, §3

wheat (WHEA) = assay: as above; design: dose or concentration left out as unconfirmed; details: Triticum aestivum, Table 63, Biocide No. 1 8.96 Kg/Ha, antidote 4.48 Kg/Ha PPI where in label
Method: as §1, §2, §3

Giant foxtail (GIFT) = assay: as above; design: dose or concentration left out as unconfirmed; details: Setaria faberi, Table 63, Biocide No. 1 8.96 Kg/Ha, antidote 4.48 Kg/Ha PPI where in label
Method: as §1, §2, §3

grain sorghum (GRSO) = assay: as above; design: dose or concentration left out as unconfirmed; details: Biocide No. 1 8.96 Kg/Ha, antidote 4.48 Kg/Ha PPI where in label
Method: as §1, §2, §3

soybean (SOBE) = assay: as above; design: dose or concentration left out as unconfirmed; details: Glycine max, Table 63, Biocide No. 1 8.96 Kg/Ha, antidote 4.48 Kg/Ha PPI where in label
Method: as §1, §2, §3

Corn [2] = assay: Greenhouse test Procedure VI: biocide and antidote in furrow, herbicide PPI in cover layer (Examples 43-47, 59-61; Tables 42-46, 58-60); details: COUNTER 15G/PURSUIT interaction; Example 47
Text: This procedure describes interaction among herbicide, biocide and antidote when the herbicide is incorporated in a soil cover layer and the biocide and the antidote are applied in a soil furrow containing crop seed before emergence of the crop. The soil and seeding depth were described in Procedure IV. A first container was designated as an untreated control, a second container was designated as a herbicide control, a third container was designated as a herbicide + biocide control and a fourth container as a herbicide + biocide + antidote test container. The biocide and antidote were formulated as granules. The biocide was applied to the soil furrows of the third and fourth containers at an application rate of 1.1 mg of active compound per cm of row. The antidote was applied to the soil furrow of the fourth container at an application rate of 0.37 mg of active compound per cm of row. A measured amount of the herbicide dispersed or dissolved in acetone was applied to a measured quantity of soil. The quantity of soil treated with the herbicide was thoroughly mixed to incorporate the herbicide. Samples of this soil were used to cover the seed beds of the second, third and fourth containers. For each test series, the seed bed of the first container was likewise covered by a soil layer not treated with herbicide and without biocide or antidote in the soil furrow.
The containers were then placed on a bench in a greenhouse. Watering was by subirrigation plus overhead irrigation after the plants emerged. All treatments were run in duplicate. Plant response was observed according to Procedure IV. Variations in this procedure will be noted in the examples.
In continuing tests to evaluate the variations of this invention, a series of tests were conducted to determine the efficacy of the above safeners in Examples 39-42 to alleviate corn injury induced by the interaction of various additional commercial sulfonylurea herbicides with COUNTER 15G insecticide. In this example, the tests were conducted according to Procedure VI above. In modifications of that procedure, herbicides were applied to soil samples as acetone/water suspensions, incorporated by shaking in a closed container, with subsamples used to cover furrow-treated 10.2 cm pots. Pots were subirrigated followed by overhead misting on days 6-10.
This example was designed to test the safening effect of those above safeners used in this test series to relieve corn injury by negative synergism induced by interaction of COUNTER 15G and three imidazolinone herbicides, i.e., imazaquin and imazapyr (used in the POE tests in Example 41) and AC 263222 (a.i. in CADRE® herbicide). As differing from the tests in Example 41, this test was a PPI test according to Procedure VI described above. Observation of test results (Table 43) were taken thirteen 913) days after in-furrow PPI preparation.
This example describes PPI tests to evaluate said test safeners in this series with analogs of the sulfonamide herbicides tested under POE herbicide application procedures described in Example 42. In these tests, conducted according to Procedure VI described above, Herbicide Nos. 20, 22 and 24 were applied PPI with the insecticide and antidote. Observations of tests results were made thirteen days after PPI initiation.
An additional three (3) sulfonamide herbicide analogs were tested simultaneously and under the same conditions described in Example 45.
Another test of this invention involved the safening effects of the safeners in this series against negative synergy inducted by the interaction of COUNTER 15G and a sulfonylurea herbicide (OUST®), Herbicide No. 13, and PURSUIT, an imidazolinone herbicide, No. 6. Test conditions were the same as those in Examples 43-46. Other procedures for applying herbicidal formulations are as described in Example 42. […]

Corn [3] = assay: Greenhouse test Procedure VII: biocide and antidote in furrow, herbicide POE (Examples 39-42, 48-50, 56-58; Tables 38-41, 47-49, 55-57); details: in-furrow antidote; COUNTER 15G + sulfonamide herbicides; Table 41
Outline: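 Corn seed was planted in greenhouse pots, with COUNTER 15G insecticide plus antidote granules applied in-furrow (e.g. 1.1 + 0.37 mg a.i./cm, or 227 g/305 m with acetone-applied safeners). About five days later, herbicides in water with 0.25% v/v X-77 were track-sprayed post-emergence at 187 L/ha. Plant response was scored eight days afterward, with two to four replicates.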

[4] = Herb. No. 18 (PURSUIT) 0.009 Kg/Ha POE
[5] = Herb. No. 18 (PURSUIT) 0.035 Kg/Ha POE
[6] = Herb. No. 18 (PURSUIT) 0.14 Kg/Ha POE

CCc1cnc(C2=NC(C)(C(C)C)C(=O)N2)c(C(=O)O)c1 (stereo not drawn) [Herb. No. 18]
inhibition (cotton (COTT); [4]): 40% | inhibition (cotton (COTT); [5]): 45% | inhibition (cotton (COTT); [6]): 50% | inhibition (Corn [1]; [4]): 5% | inhibition (Corn [1]; [5]): 25% | inhibition (Corn [1]; [6]): 40% | inhibition (Velvetleaf (VELE); [4]): 75% | inhibition (Velvetleaf (VELE); [5]): 95% | inhibition (Velvetleaf (VELE); [6]): 100% | inhibition (RICE; [4]): 20% | inhibition (RICE; [5]): 45% | inhibition (RICE; [6]): 60% | inhibition (wheat (WHEA); [4]): 0% | inhibition (wheat (WHEA); [5]): 20% | inhibition (wheat (WHEA); [6]): 35% | inhibition (Giant foxtail (GIFT); [4]): 60% | inhibition (Giant foxtail (GIFT); [5]): 80% | inhibition (Giant foxtail (GIFT); [6]): 80% | inhibition (grain sorghum (GRSO); Table 63, Herb. No. 18 (PURSUIT) 0.009 Kg/Ha POE): 60% | inhibition (grain sorghum (GRSO); Table 63, Herb. No. 18 (PURSUIT) 0.035 Kg/Ha POE): 65% | inhibition (grain sorghum (GRSO); Table 63, Herb. No. 18 (PURSUIT) 0.14 Kg/Ha POE): 75% | inhibition (soybean (SOBE); [4]): 5% | inhibition (soybean (SOBE); [5]): 10% | inhibition (soybean (SOBE); [6]): 10%

N#CCOc1ccc(Cl)c2cccnc12 [Antidote No. 33, Acetonitrile, [(5-chloro-8-quinolinyl)oxy]-]
safening (Corn [2]): good activity | corn injury (Corn [1]; COUNTER 15G and BEACON, Example 62): effectively reduced | corn injury (Corn [3]): significantly reduced
